Assay results as given in patent publication EP4772649A1, “SCREENING METHOD FOR ODOR-SUPPRESSING MATERIAL” (Takasago International Corporation, priority 2023, dated 2025).
“Also recorded” adds a separate entry of the source.

Columns and labels:
[1] = tested on: olfactory receptor OR2AG2; test: Antagonist screening: suppression of OR2AG2 response by luciferase reporter gene assay (Normalized Response); assay type: cell-based, human
Protocol: The human olfactory receptor OR2AG2 gene expression vector was cloned, and HEK293T cells expressing the olfactory receptor OR2AG2 gene were used to perform an antagonist screening in which the effect of test substances on suppressing OR2AG2 response is measured by a luciferase reporter gene assay. In the luciferase reporter gene assay, each of approximately 500 test substances was individually mixed with each "dust odor" compound sample, and the Fold Increase value obtained in each test with the test substance mixed was calculated as the Normalized Response, assuming that the Fold Increase value obtained in the test without mixing any test substance was 1. The concentrations of the "dust odor" compounds used as samples were set as follows: a) 3-ethyl-2-pentylpyridine, 300 µM; b) 2-methoxy-3-isopropylpyrazine, 500 µM; c) 2-isobutyl-3-methoxypyrazine, 500 µM; and d) 2-sec-butyl-3-methoxypyrazine, 500 µM. […] As examples of antagonists thereby identified for each of the "dust odor" compounds a) to d), a) 2,4-decadienal, b) trans-2-nonenal, c) 2,4-undecadienal, and d) 2,4-decadienal were measured for their concentration-dependent effects in suppressing OR2AG2 response to each sample substance using a luciferase reporter gene assay. The concentrations of the samples were set as follows: a) 3-ethyl-2-pentylpyridine, 300 µM; b) 2-methoxy-3-isopropylpyrazine, 500 µM; c) 2-isobutyl-3-methoxypyrazine, 500 µM; and d) 2-sec-butyl-3-methoxypyrazine, 500 µM. The concentrations of the antagonists for each sample were set at 0 µM, 10 µM, 30 µM, 100 µM, and 300 µM.
As in (2-3) of Example 2, HEK293T cells expressing the olfactory receptor OR2AG2 gene were used to determine the effect of test substances in suppressing OR2AG2 response to an odor solution sample with unknown components containing "dust odor" by antagonist screening using a luciferase reporter gene assay. […] As an example of antagonist, the effect of trans-2-nonenal in suppressing OR2AG2 response to the "dust odor" solution with unknown components was measured by a luciferase reporter gene assay. The final concentration of the sample was 0.1 mass%, and the concentrations of trans-2-nonenal relative to the sample were 0 µM, 1 µM, 2 µM, and 4 µM.

[2] = tested on: olfactory receptor OR2AG1; conditions: Non Patent Literature 6; cited from earlier work
[3] = tested on: olfactory receptor OR2AG2; test: Luciferase reporter gene assay of olfactory receptor response (Fold Increase) in HEK293T cells expressing OR2AG2; assay type: cell-based, human; conditions: for OR2AG2 response (Fold Increase value): screening of 1,367 odorant substances, 1 µM to 1 mM, Figure 2
Protocol: 0.05 µg of the human olfactory receptor gene expression vector, 0.01 µg of RTP1S vector, 0.01 µg of the firefly luciferase vector pGL4.29 (Promega) containing a cAMP response element promoter, and 0.005 µg of the Renilla luciferase vector pGL4.74 (Promega) containing a thymidine kinase promoter were dissolved in 10 µL of Opti-MEM I (gibco) to prepare a gene solution (for one well). HEK293T cells were seeded at 100 µL per well in a 96-well plate (Biocoat, Corning) at a cell number that would reach confluence after 24 hours. The gene solution was added to each well using lipofection in accordance with the instructions for Lipofectamine 3000 to introduce the gene into the cells, which were then cultured at 37°C in a 5% carbon dioxide atmosphere for 24 hours.
After removing the culture medium, 60 µL of an odorant compound sample prepared in CD293 medium (gibco) (supplemented with 20 µM L-glutamine), at the concentration required for measurement, was added to each well. After stimulation for 3 hours, luciferase activity was measured in accordance with the instructions for the Dual-Luciferase Reporter Assay System (Promega). The response intensity of the olfactory receptor was determined using, as an index, a Fold Increase value obtained by dividing the luciferase activity generated by stimulation with the odorant compound by the luciferase activity generated in a test system free of the odorant compound.
For odorant substances whose response values in the luciferase reporter gene assay were equal to or greater than a predetermined threshold, the primary note from the odor-note information was extracted, and the proportion of each odor note was determined.
To extract the "dust odor" generated when aspartame is combined with certain fruit flavors, as described in Patent Literature 1, which is well-known as a "dust odor" of unknown causative substance, aspartame, trans-2-hexenal, and hexanal were mixed at a 1:1:1 (mass ratio) and gently heated at 60°C for one week, after which the reaction product was extracted with hexane. The present extract was fractionated by medium-pressure HPLC with a silica gel column using hexane and ethyl acetate, then fractionated by medium-pressure HPLC with an ODS column using water and acetonitrile, and further fractionated by high-pressure HPLC with an ODS column using water and acetonitrile, to obtain an odor solution containing "dust odor." This "dust odor" solution with unknown components was added to HEK293T cells expressing the olfactory receptor OR2AG2 gene at final concentrations of 0.05 mass%, 0.1 mass%, and 0.2 mass%, and a luciferase reporter gene assay was performed.

OR2M3 = conditions: Patent Literature 2; cited from earlier work
OR11A1 = conditions: Patent Literature 2; cited from earlier work

SMILES: CCCCCC=CC=CC=O [2,4-decadienal]
- Normalized Response ([1]; against 2-sec-butyl-3-methoxypyrazine 500 µM, test substance 1 µM to 1 mM): less than 1
- Normalized Response ([1]; against 3-ethyl-2-pentylpyridine 300 µM, test substance 1 µM to 1 mM): less than 1

SMILES: CCCCCCC=CC=CC=O [2,4-undecadienal]
- Normalized Response ([1]; against 2-isobutyl-3-methoxypyrazine 500 µM, test substance 1 µM to 1 mM): less than 1

SMILES: COc1nccnc1CC(C)C [2-isobutyl-3-methoxypyrazine]
- response of olfactory receptor OR2AG1 [2]: responds
- response of olfactory receptor OR2AG2 (Fold Increase value) ([3]; 1 mM odorant, screening of 396 human olfactory receptors, Figure 1): extremely strong response; also recorded: strong and specific response
- OR2AG2 response (Fold Increase value) [3]: trigger OR2AG2 response

SMILES: COc1nccnc1C(C)C [2-methoxy-3-isopropylpyrazine]
- response of olfactory receptor OR2AG1 [2]: responds
- OR2AG2 response (Fold Increase value) [3]: trigger OR2AG2 response

SMILES: CC1(O)CC2CCC1(C)C2(C)C (stereo not drawn) [2-methylisoborneol]
- response of olfactory receptor OR2M3 (OR2M3): specifically respond

SMILES: CCC(C)c1nccnc1OC (stereo not drawn) [2-sec-butyl-3-methoxypyrazine]
- response of olfactory receptor OR2AG1 [2]: responds
- OR2AG2 response (Fold Increase value) [3]: trigger OR2AG2 response

SMILES: CCCCCc1ncccc1CC [3-ethyl-2-pentylpyridine]
- OR2AG2 response (Fold Increase value) [3]: trigger OR2AG2 response

SMILES: CC1CCCC2(C)CCCCC12O (stereo not drawn) [geosmin]
- response of olfactory receptor OR11A1 (OR11A1): specifically respond

SMILES: CCCCCC/C=C/C=O [trans-2-nonenal]
- Normalized Response ([1]; against 0.1 mass% odor solution with unknown components containing "dust odor"): below 1
- Normalized Response ([1]; against 2-methoxy-3-isopropylpyrazine 500 µM, test substance 1 µM to 1 mM): less than 1
